From patent US20160222014A1, “COMPOUNDS FOR REGULATING FAK AND/OR SRC PATHWAYS” (ASANA BIOSCIENCES, LLC, priority 2013, published 2016)

Experiments:
AURKB (Aurora B) enzyme = target: T1, AURKB (Aurora B) enzyme (Homo sapiens, UniProt Q96GD4); experiment: Aurora B HTRF assay; format: biochemical; settings: read-out: AuroraB IC50
T1 construct: purchased Invitrogen PVR 130
Outline: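 Enzyme (5 nM final) and ULight-labelled PLK Ser137 peptide (50 nM) reacted 1 h at room temperature; a 30 μM final component was also present. Detection used EDTA-containing buffer with europium anti-phospho-PLK(Ser137) antibody at 2 nM, 1 h, then time-resolved FRET readout.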

JAK2 = JAK2 (Homo sapiens, UniProt O60674); experiment: JAK2 biochemical potency; settings: read-out: JAK2 HTRF IC50
Sequence of JAK2 (O60674 whole entry, species assumed): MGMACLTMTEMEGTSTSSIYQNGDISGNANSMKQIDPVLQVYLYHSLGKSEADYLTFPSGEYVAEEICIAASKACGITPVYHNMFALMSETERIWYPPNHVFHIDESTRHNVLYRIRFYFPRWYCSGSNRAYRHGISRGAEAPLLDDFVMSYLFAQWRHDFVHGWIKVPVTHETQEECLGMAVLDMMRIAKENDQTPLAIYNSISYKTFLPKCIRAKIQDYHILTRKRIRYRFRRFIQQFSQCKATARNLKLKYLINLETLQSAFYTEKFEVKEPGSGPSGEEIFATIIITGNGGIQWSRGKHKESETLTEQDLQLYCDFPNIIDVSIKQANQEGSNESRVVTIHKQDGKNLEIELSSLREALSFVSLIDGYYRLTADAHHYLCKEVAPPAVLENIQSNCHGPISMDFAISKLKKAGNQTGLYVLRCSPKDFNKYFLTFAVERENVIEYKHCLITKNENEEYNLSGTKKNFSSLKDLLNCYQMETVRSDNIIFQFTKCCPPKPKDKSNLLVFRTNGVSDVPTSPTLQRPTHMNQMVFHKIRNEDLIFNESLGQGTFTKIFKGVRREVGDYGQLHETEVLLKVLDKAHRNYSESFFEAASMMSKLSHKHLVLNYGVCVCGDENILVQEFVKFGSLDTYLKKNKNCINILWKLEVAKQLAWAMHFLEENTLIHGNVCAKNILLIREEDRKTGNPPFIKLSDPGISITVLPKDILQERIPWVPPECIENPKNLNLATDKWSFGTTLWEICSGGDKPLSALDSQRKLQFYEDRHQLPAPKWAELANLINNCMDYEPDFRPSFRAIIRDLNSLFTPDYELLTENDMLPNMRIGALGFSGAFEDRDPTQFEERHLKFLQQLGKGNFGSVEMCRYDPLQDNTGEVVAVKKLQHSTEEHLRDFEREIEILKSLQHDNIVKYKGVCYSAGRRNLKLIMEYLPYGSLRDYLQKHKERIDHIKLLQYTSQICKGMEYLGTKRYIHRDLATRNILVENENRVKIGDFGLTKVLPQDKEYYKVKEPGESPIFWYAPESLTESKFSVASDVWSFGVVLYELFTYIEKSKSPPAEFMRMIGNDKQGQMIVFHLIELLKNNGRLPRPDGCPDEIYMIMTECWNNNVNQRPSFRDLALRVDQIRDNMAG

recombinant human FAK1 = target: T2, recombinant human FAK1 (Homo sapiens, UniProt Q05397); experiment: FAK1 HTRF assay; format: biochemical
T2 construct: fused on or other part: N-terminal 6xHis tag
T2 sequence (Q05397 422-680 limits assumed): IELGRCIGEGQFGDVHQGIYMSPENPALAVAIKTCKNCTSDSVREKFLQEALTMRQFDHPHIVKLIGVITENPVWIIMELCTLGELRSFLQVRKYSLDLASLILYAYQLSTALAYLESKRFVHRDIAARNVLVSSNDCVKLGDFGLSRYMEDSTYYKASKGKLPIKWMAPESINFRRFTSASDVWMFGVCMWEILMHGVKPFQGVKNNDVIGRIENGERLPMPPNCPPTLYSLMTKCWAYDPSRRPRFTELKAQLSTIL
Outline: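 IC50 values derive from HTRF % inhibition (ratio 665/620 nm, Eu–anti-phosphotyrosine 0.1 nM, SA-APC 12 nM). The kinase step ran 45 min at room temperature, pairing 10 nM His-FAK1(692–end) from baculovirus with 0.5 μM gastrin Tyr87 biotin-peptide and a reagent at 10 μM final, pH 7.4. Compound dilutions began at 10 μM.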

Recombinant Src enzyme = target: T3, Recombinant Src enzyme (Homo sapiens, UniProt P12931); experiment: Src HTRF assay; format: biochemical
T3 construct: purchased Millipore 14-326; host or cells: Sf21 insect cells
T3 sequence (P12931 whole entry): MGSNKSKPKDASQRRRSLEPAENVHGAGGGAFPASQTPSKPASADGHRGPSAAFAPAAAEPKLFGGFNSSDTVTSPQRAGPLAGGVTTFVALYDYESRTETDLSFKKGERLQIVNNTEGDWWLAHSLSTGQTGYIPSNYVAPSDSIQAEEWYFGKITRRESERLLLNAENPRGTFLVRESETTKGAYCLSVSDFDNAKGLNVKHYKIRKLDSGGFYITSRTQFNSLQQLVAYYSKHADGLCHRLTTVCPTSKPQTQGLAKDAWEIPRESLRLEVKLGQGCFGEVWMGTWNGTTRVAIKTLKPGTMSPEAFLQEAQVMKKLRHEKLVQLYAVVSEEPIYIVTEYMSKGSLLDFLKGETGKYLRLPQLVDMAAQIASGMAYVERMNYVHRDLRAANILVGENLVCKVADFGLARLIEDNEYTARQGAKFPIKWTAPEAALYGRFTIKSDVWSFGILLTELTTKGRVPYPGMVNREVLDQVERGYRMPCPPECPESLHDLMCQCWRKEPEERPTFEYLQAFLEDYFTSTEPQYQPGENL
Outline: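 Run as for the FAK HTRF assay (same buffer, supplements, compound preparation and procedure), with dasatinib included. Reaction contained 0.5 μM biotin-tagged Tyk2 synthetic peptide, 5 nM Src made in Sf21 cells, and a pH7.4-buffer-prepared component at 10 μM final.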

[1] = target: T4, FAK phosphorylated at Y397 in HEK-FAK cell line overexpressing human FL FAK protein (Homo sapiens, UniProt Q05397); experiment: Cell based assay, Phospho-FAK ELISA; settings: HEK stb; read-out: pFAK EC50 (μM) HEK stb
T4 construct: expressed in transfected cells
T4 sequence (Q05397 whole entry): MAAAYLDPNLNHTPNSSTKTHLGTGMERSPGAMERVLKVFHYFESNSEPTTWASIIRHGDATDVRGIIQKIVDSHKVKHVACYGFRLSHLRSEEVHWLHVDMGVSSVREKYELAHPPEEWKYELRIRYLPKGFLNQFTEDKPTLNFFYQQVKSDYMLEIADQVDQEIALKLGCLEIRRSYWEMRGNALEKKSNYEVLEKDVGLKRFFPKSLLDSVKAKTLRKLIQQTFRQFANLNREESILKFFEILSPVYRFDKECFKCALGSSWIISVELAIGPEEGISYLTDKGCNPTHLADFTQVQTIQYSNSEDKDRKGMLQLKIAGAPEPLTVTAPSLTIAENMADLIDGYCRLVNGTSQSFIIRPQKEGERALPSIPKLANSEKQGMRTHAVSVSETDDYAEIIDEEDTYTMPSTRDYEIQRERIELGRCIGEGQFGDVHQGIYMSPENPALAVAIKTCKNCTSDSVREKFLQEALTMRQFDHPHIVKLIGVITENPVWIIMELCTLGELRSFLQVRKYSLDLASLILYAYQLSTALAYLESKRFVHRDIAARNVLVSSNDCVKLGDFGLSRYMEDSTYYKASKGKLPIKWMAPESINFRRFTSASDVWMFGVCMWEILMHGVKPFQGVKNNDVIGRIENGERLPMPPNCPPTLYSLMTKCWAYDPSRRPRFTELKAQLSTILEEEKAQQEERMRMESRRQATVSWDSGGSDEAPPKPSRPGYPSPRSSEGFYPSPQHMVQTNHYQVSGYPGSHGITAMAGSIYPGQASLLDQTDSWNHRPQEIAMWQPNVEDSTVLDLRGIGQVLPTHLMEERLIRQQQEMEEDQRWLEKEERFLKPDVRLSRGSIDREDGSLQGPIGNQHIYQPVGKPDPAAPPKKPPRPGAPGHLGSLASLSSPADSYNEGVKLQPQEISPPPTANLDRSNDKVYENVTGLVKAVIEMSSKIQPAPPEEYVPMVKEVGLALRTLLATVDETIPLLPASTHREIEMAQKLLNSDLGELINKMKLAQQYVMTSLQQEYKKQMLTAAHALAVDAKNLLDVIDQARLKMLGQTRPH
Excerpt: D. Cell Based Assay-Phospho-FAK ELISA
The DuoSet IC ELISA (R&D systems—Cat no. DYC4528-5) provided the basic components required for the development of sandwich ELISAs to measure Focal Adhesion Kinase 1 (FAK) phosphorylated at Y397 in cell lysates. An immobilized capture antibody specific for FAK, also known as PTK2, binds both phosphorylated and unphosphorylated protein. After washing away unbound material, a biotinylated detection antibody specific for FAK phosphorylated at Y397 was used to detect only phosphorylated protein, utilizing a standard Streptavidin-HRP format. The cell line used for the assay was a stable HEK-FAK cell line overexpressing human FL FAK protein, which was generated as follows.
HEK293 cells (ATCC® CRL-1573™, 10801 University Boulevard, Manassas, Va. 20110 USA) were seeded in four 100 mm petri dishes at a seeding density of 1.5×10^6 cells per plate and incubated overnight at 37° C. in a 5% CO2 incubator. The transfection mix was prepared as follows. (A) 10 μg DNA (pCDNA4 V5/HisA vector containing Zeocin as mammalian selection marker, procured from Invitrogen) with the full length human FAK gene represented by the nucleotide sequence provided in NCBI Reference Sequence: NM_153831.3, SEQ ID NO: 1:
was added to 1.5 mL Opti-MEM® (reduced serum media is a modification of Eagle's Minimum Essential Media, buffered with HEPES and sodium bicarbonate and supplemented with hypoxanthine, thymidine, sodium pyruvate, L-glutamine, trace elements and growth factors commercially available from Invitrogen) and incubated at room temperature for 5 minutes. (B) 30 μL Lipofectamine™ Transfection reagent (Life Technologies) was added to 1.5 mL Opti-MEM® and incubated at room temperature for 5 minutes. Following this, (a) and (b) were mixed and incubated at room temperature for 20 minutes. Media was removed from cells and washed with 1× phosphate buffered saline (PBS) and the transfection mix prepared above was mixed with 3 mL of Opti-MEM®, added to the cells and incubated at 37° C. Four hours later, 6 mL of 20% Dulbecco's Modified Eagle Medium (DMEM) was added to the plates and incubated at 37° C. in a 5% CO2 incubator. Approximately 72 hours after transfection, cells were subcultured at various dilutions with fresh medium containing 0.8 mg/mL Zeocin™ (Life Technologies). Cells were replenished with selective medium every 3-4 days until cell foci were identified in the FAK transfected cells and most of the cells died in the control plates. Cells from these foci were grown in the presence of selective media and the expression of FAK was confirmed by Western Blotting. Over expression of FAK in the stably-transfected cells was quantified in the cell-based ELISA assay described below by determining the signal window, with a signal window of 2 or above considered to be robust). The HEK-FAK stable cell line thus was maintained in 0.8 mg/mL Zeocin™ (Life Technologies) and used in cell-based ELISA to assess autophosphorylation of FAK.
(i) Materials • 1. Phospho-FAK (Y397)-Capture Antibody • 2. Phospho-FAK (Y397)-Detection Antibody • 3. Streptavidin-HRP • 4. Cells used for the assay-HEK over expressing human FL FAK protein
(ii) Solutions • PBS—137 mM NaCl, 2.7 mM KCl, 8.1 mM Na2HPO4, 1.5 mM KH2PO4, pH 7.2-7.4, 0.2 μm filtered. • Wash Buffer—0.05% Tween20™ in PBS, pH 7.2-7.4 • Block Buffer—1% BSA, 0.05% NaN3, in PBS, pH 7.2-7.4. • IC Diluent #1-1% BSA in PBS, pH 7.2-7.4, 0.2 μm filtered. • IC Diluent #8-1 mM EDTA, 0.5% Triton™ X-100, 5 mM NaF in PBS, pH 7.2-7.4. IC Diluent #8 was also the base buffer for IC Diluent #3, IC Diluent #7, and Lysis. • Buffer #6. […]

T1 sequence (Q96GD4 whole entry): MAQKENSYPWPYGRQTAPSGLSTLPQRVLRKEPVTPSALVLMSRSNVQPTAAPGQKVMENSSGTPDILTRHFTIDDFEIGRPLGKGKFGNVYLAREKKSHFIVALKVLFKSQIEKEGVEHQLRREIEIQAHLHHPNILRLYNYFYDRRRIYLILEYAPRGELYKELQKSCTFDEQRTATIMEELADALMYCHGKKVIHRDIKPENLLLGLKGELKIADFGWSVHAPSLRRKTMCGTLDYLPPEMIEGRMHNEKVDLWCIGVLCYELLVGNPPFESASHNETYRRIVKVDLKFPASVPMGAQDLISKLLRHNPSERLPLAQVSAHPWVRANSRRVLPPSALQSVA

Row | IC50 (AURKB (Aurora B) enzyme) [nM] | IC50 (JAK2) [nM] | IC50 (recombinant human FAK1) [nM] | IC50 (Recombinant Src enzyme) [nM] | EC50 [1] [µM] | Structure (SMILES)
1 | – | < 20 | < 20 | – | – | CC(=O)Nc1cccc(Nc2ncc3ccn(Cc4ccccc4N(C)S(C)(=O)=O)c3n2)c1 [Example 100]
2 | – | < 20 | – | – | – | CN1CCN(c2ccc(Nc3ncc4ccn(Cc5cccnc5N(C)S(C)(=O)=O)c4n3)cc2)CC1 [Example 101]
3 | < 20 | < 20 | < 20 | – | – | COc1ccccc1S(=O)(=O)n1ccc2cnc(Nc3ccc4c(c3)CCC(=O)N4)nc21 [Example 106]
4 | < 20 | < 20 | – | – | – | CN(c1ncccc1Cn1ccc2cnc(Nc3cccc(S(N)(=O)=O)c3)nc21)S(C)(=O)=O [Example 165]
5 | < 20 | < 20 | < 20 | – | – | O=c1[nH]c2ccc(Nc3ncc4ccn(S(=O)(=O)c5ccccc5OC(F)F)c4n3)cc2[nH]1 [Example 180]
6 | < 20 | > 1000 | – | – | – | O=S(=O)(c1cccc2cccnc12)n1ncc2cnc(Nc3ccc(N4CCNCC4)cc3)cc21 [Example 210]
7 | < 20 | < 20 | – | – | – | O=S(=O)(c1cccc2cnccc12)n1ccc2cnc(Nc3ccc(N4CCNCC4)cc3)nc21 [Example 235]
8 | < 20 | < 20 | < 20 | – | – | O=S(=O)(c1cccc2cccnc12)n1ccc2cnc(Nc3ccc(CN4CCNCC4)cc3)nc21 [Example 244]
9 | < 20 | < 20 | < 20 | – | – | O=S(=O)(c1cccc2cccnc12)n1ccc2cnc(Nc3ccc(N4CC5CC4CN5)cc3)nc21 (stereo not drawn) [Example 246]
10 | < 20 | < 20 | < 20 | – | – | COc1ccccc1S(=O)(=O)n1ccc2cnc(Nc3ccc(N4CCNCC4)cc3)nc21 [Example 333]
11 | – | < 20 | – | – | – | C[C@H]1CN(c2ccc(Nc3ncc4ccn(Cc5cccnc5N(C)S(C)(=O)=O)c4n3)cc2)CCN1 [Example 471, N-Methyl-N-(3-{2-[4-((S)-3-methyl-piperazin-1-yl)-phenylamino]-pyrrolo[2,3-d]pyrimidin-7-ylmethyl}-pyridin-2-yl)-methanesulfonamide]
12 | – | > 1000 | < 20 | – | – | CN(C)C1CCN(c2ccc(Nc3ncc4c(n3)N(S(=O)(=O)c3cccc5cccnc35)CC4(C)C)cc2)CC1 [Example 500]

Continued, compound first:

Row | Structure (SMILES) | IC50 (AURKB (Aurora B) enzyme) [nM] | IC50 (JAK2) [nM] | IC50 (recombinant human FAK1) [nM] | IC50 (Recombinant Src enzyme) [nM] | EC50 [1] [µM]
13 | CC(=O)Nc1ccc(Nc2ncc3ccn(Cc4cccnc4N(C)S(C)(=O)=O)c3n2)cc1 [Example 35] | < 20 | < 20 | – | – | –
14 | CN(C)CCOc1cccc(Nc2ncc3ccn(Cc4cccnc4N(C)S(C)(=O)=O)c3n2)c1 [Example 91] | < 20 | < 20 | – | – | –
15 | CC(=O)Nc1ccc(Nc2ncc3ccn(Cc4ccccc4OC(F)F)c3n2)cc1 [Example 95] | – | < 20 | – | – | –
16 | CN(c1ncccc1Cn1ccc2cnc(Nc3cccc(N4CCOCC4)c3)nc21)S(C)(=O)=O [Example 99] | – | < 20 | – | – | –
17 | CN(c1ccccc1Cn1ccc2cnc(Nc3ccc4c(c3)CCC(=O)N4)nc21)S(C)(=O)=O [Example 103] | – | < 20 | < 20 | – | –
18 | CN(C)c1ccc(Nc2ncc3ccn(Cc4cccnc4N(C)S(C)(=O)=O)c3n2)cc1 [Example 105] | < 20 | < 20 | – | – | –
19 | CN(c1ncccc1Cn1ccc2cnc(Nc3ccc(N4CCNCC4)cc3)nc21)S(C)(=O)=O [Example 116] | < 20 | < 20 | – | – | –
20 | CN(c1ncccc1Cn1ccc2cnc(Nc3ccc4ncsc4c3)nc21)S(C)(=O)=O [Example 123] | < 20 | < 20 | – | – | –
21 | O=S(=O)(c1ccccc1OC(F)F)n1ccc2cnc(Nc3ccc(N4CCNCC4)cc3)nc21 [Example 184] | < 20 | < 20 | < 20 | – | –
22 | O=S(=O)(c1cccc2cccnc12)n1ccc2cnc(Nc3ccc(N4CCNCC4)cc3)nc21 [Example 193] | < 20 | < 20 | < 20 | – | –
23 | CN(C)Cc1ccc(Nc2ncc3ccn(S(=O)(=O)c4cccc5cccnc45)c3n2)cc1 [Example 205] | < 20 | < 20 | < 20 | – | –
24 | O=S(=O)(c1cccc2cccnc12)n1ccc2cnc(Nc3ccc(CN4CCC(F)(F)CC4)cc3)nc21 [Example 248] | < 20 | < 20 | < 20 | – | –
25 | CN(c1ncccc1Cn1ccc2cnc(Nc3ccc4c(c3)CC(=O)N4)nc21)S(C)(=O)=O [Example 304] | < 20 | < 20 | < 20 | – | –
26 | N#Cc1ccccc1S(=O)(=O)n1ccc2cnc(Nc3ccc(N4CCNCC4)cc3)cc21 [Example 314] | < 20 | < 20 | < 20 | – | –
27 | N#Cc1ccccc1S(=O)(=O)n1cc(F)c2cnc(Nc3ccc(N4CCNCC4)cc3)nc21 [Example 319] | < 20 | < 20 | < 20 | – | –
28 | COc1cc(Nc2cc3c(ccn3S(=O)(=O)c3cccc4cccnc34)cn2)ccc1N1CCNCC1 [Example 328] | < 20 | > 1000 | < 20 | – | –
29 | Cc1cc(S(=O)(=O)n2ccc3cnc(Nc4ccc(N5CCNCC5)cc4)nc32)c2ncccc2c1 [Example 357] | < 20 | < 20 | < 20 | – | –
30 | COc1cc(Nc2cc3c(ccn3S(=O)(=O)c3ccccc3C#N)cn2)ccc1N1CCNCC1 [Example 391] | < 20 | > 1000 | < 20 | – | –
31 | Cc1ccnc2c(S(=O)(=O)n3ccc4cnc(Nc5ccc(N6CCNCC6)cc5)nc43)cccc12 [Example 398] | < 20 | – | – | > 1000 | > 1
32 | C[C@@H]1CN(c2ccc(Nc3ncc4ccn(Cc5cccnc5N(C)S(C)(=O)=O)c4n3)cc2)CCN1 [Example 475] | < 20 | < 20 | – | – | –
33 | C[C@H]1CNCCN1c1ccc(Nc2ncc3ccn(Cc4ccccc4N(C)S(C)(=O)=O)c3n2)cc1 [Example 481] | < 20 | < 20 | – | – | –
34 | C[C@@H]1CN(c2ccc(Nc3ncc4ccn(Cc5ccccc5NS(C)(=O)=O)c4n3)cc2)CCN1 [Example 547] | < 20 | – | – | < 20 | > 1
35 | CC1(C)CN(c2ccccn2)c2nc(Nc3ccc4c(c3)CC(=O)N4)ncc21 [Example 740] | > 1000 | – | – | > 1000 | > 1
